Measurements reported in US8383824B2, “Heterocyclic antiviral compounds” (Roche Palo Alto LLC, priority 2009, dated 2013).

Columns and labels:
[1] = tested on: HCV replicon cells (2209-23); experiment: HCV replicon assay (Renilla luciferase reporter); type: cell-based, HCV genotype 1b replicon in human hepatoma Huh7 cells; details: Hepatitis C virus, 72 h; 2209-23 cells, three days incubation
[2] = Determination of pharmacokinetic parameters in rats; type: in vivo; details: male, Wistar Han (Hanover-Wistar), Crl:WI(GLx/BRL/Han)IGS BR, rat, oral gavage, 10 mg/kg, plasma; for AUC(0-t): read-out: AUC0→24 (extrapolated)
Procedure: Intact male IGS Wistar Han Rats Crl:WI(GLx/BRL/Han)IGS BR (Hanover-Wistar) rats weighing 200-250 g were used. Groups of three rats were used for each dose level of an experimental compound. Animals were allowed normal access to chow and water throughout the experiment. The test substance was formulated as an aqueous suspension containing Captex355EP, Capmul MCM, EtOH, and propylene glycol (30:20:20:30) at a dose equivalent to 10 mg/kg of the I-6 and was administered orally by gavage. A blood sample (0.3 mL) was collected from the treated rats at, 0.25, 0.5, 1, 3, 5, and 8 h from a jugular cannula and at 24 h by cardiac puncture. Potassium oxalate/NaF were added to the samples which were stored on ice during sampling procedure. The samples were spun in a refrigerated centrifuge at […] as soon as possible and the plasma samples were stored in a −80° C. freezer until analysis. Aliquots of plasma (0.05 mL) were mixed with 0.1 mL of acetonitrile. Internal standard (0.05 mL in water) and 0.02 mL blank solvent were added. A set of calibration standards was prepared by mixing 0.05-mL aliquots of plasma from untreated rats with 0.1 mL acetonitrile, 0.02-mL aliquots of standard solution in methanol:water (1:1) and 0.05-mL aliquots of the internal standard in water. Each plasma sample and calibration standard was vortexed thoroughly and then centrifuged at 3000 rpm for 5 min to precipitate the protein. Supernatant (100 μL each) from centrifugation was transferred into a 96-well plate containing 200 μL of aqueous mobie phase for LC/MS/MS analysis.

HCV = details: monotherapy; cited from earlier work

Structure (SMILES): [2H]C([2H])([2H])C(c1cc(-c2ccc[nH]c2=O)cc(/C=C/c2ccc(NS(C)(=O)=O)cc2)c1OC)(C([2H])([2H])[2H])C([2H])([2H])[2H] [Compound I-1, N-(4-{(E)-2-[3-[1,1-di(methyl-d3)ethyl-2,2,2-d3]-2-methoxy-5-(2-oxo-1,2-dihydro-pyridin-3-yl)-phenyl]-vinyl}-phenyl)-methanesulfonamide]
- IC50 [1]: 6.1 nM

Structure (SMILES): [2H]C([2H])([2H])C(c1cc(-c2cc(Cl)c[nH]c2=O)cc(/C=C/c2ccc(NS(C)(=O)=O)cc2)c1OC)(C([2H])([2H])[2H])C([2H])([2H])[2H] [Compound I-3, N-(4-{(E)-2-[3-[1,1-di(methyl-d3)ethyl-2,2,2-d3]-2-methoxy-5-(2-oxo-5-chloro-1,2-dihydro-pyridin-3-yl)-phenyl]-vinyl}-phenyl)-methanesulfonamide]
- AUC [2]: 810 ng·h/mL
- Cmax [2]: 83.4 ng/mL
- AUC(0-t) [2]: 1000 ng·h/mL

Structure (SMILES): [2H]C([2H])([2H])C(c1cc(-c2c[nH]c(=O)[nH]c2=O)cc(/C=C/c2ccc(NS(C)(=O)=O)cc2)c1OC)(C([2H])([2H])[2H])C([2H])([2H])[2H] [Compound I-4, N-(4-{(E)-2-[3-[1,1-di(methyl-d3)ethyl-2,2,2-d3]-5-(2,4-dioxo-1,2,3,4-tetrahydro-pyrimidin-5-yl)-2-methoxy-phenyl]-vinyl}-phenyl)-methanesulfonamide]
- IC50 [1]: 3.9 nM

Structure (SMILES): COc1c(/C=C/c2ccc(NS(C)(=O)=O)cc2)cc(-c2cc(Cl)c[nH]c2=O)cc1C(C)(C)C [I-3 (non-deuterated), reference compound]
- AUC [2]: 338 ng·h/mL
- Cmax [2]: 55.8 ng/mL
- AUC(0-t) [2]: 365 ng·h/mL

Structure (SMILES): NC(=O)c1ncn([C@@H]2O[C@H](CO)[C@@H](O)[C@H]2O)n1 [ribavirin, 1-((2R,3R,4S,5R)-3,4-Dihydroxy-5-hydroxymethyl-tetrahydro-furan-2-yl)-1H-[1,2,4]triazole-3-carboxylic acid amide]
- patients with serum amino transferase levels reduced to normal (HCV): 40%
